Reference: US9302999B2, “Substituted triazoles as herbicides” (E. I. DU PONT DE NEMOURS AND COMPANY, priority 2012, dated 2016)

How the values were obtained:
Type in all cases: in vivo
[1] = tested on: Russian thistle (Salsola kali); experiment: Test C pre-/postemergence: Russian thistle; conditions: Preemergence
Summary of the method: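 Visual injury scored 0–100 (100 = complete control) against untreated controls after 13–15 greenhouse days. Surfactant-containing solvent formulations applied either to soil after sowing (loam/sand) or over 1- to 4-leaf plants, 2–18 cm tall.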

rice (Oryza sativa) = experiment: Test C flooded paddy test: rice; conditions: scale 0 to 100 (0 no effect, 100 complete control)
Summary of the method: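 Rating: visual, 0–100 (100 = complete control), versus untreated controls after 13 to 15 greenhouse days. Treatment went into paddy water held at 3 cm over the soil, on plants grown to two leaves.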

[2] = tested on: blackgrass (Alopecurus myosuroides); experiment: Test D pre-/postemergence: blackgrass
Summary of the method: (§1)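 Applied as a non-phytotoxic solvent formulation with surfactant, compounds were tested preemergence in silt loam and postemergence on seedlings 2 to 18 cm high in peat-vermiculite medium. Evaluation was visual, 0 meaning no effect and 100 complete control, at 14 to 21 days.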

[3] = tested on: foxtail, green (green foxtail, Setaria viridis); experiment: Test D pre-/postemergence: foxtail, green
Summary of the method: as §1

[4] = tested on: deadnettle (henbit deadnettle, Lamium amplexicaule); experiment: Test D pre-/postemergence: deadnettle
Summary of the method: as §1

[5] = tested on: lambsquarters (Chenopodium album); experiment: Test D pre-/postemergence: lambsquarters
Summary of the method: as §1

[6] = tested on: wheat, spring (spring wheat, Triticum aestivum); experiment: Test D pre-/postemergence: wheat, spring
Summary of the method: as §1

[7] = tested on: wheat, winter (winter wheat, Triticum aestivum); experiment: Test D pre-/postemergence: wheat, winter
Summary of the method: as §1

[8] = 31 g ai/ha, scale of 0 to 100, 0 is no effect, 100 is complete control
[9] = 62 g ai/ha, scale of 0 to 100, 0 is no effect, 100 is complete control
[10] = 125 g ai/ha, scale 0 to 100, 0 no effect, 100 complete control
[11] = 250 g ai/ha, scale 0 to 100, 0 no effect, 100 complete control
[12] = Postemergence, 31 g ai/ha, scale 0 to 100 (0 no effect, 100 complete control)
[13] = Postemergence, 62 g ai/ha, scale 0 to 100 (0 no effect, 100 complete control)
[14] = Postemergence, 125 g ai/ha, scale 0 to 100, 0 no effect, 100 complete control
[15] = Postemergence, 250 g ai/ha, scale 0 to 100 (0 no effect, 100 complete control)
[16] = Postemergence, 16 g ai/ha, scale 0 to 100
[17] = Preemergence, 31 g ai/ha, scale 0 to 100, 0 no effect, 100 complete control
[18] = Preemergence, 62 g ai/ha, scale 0 to 100
[19] = Preemergence, 125 g ai/ha, scale 0 to 100
[20] = Preemergence, 250 g ai/ha, scale 0 to 100

Cc1nn(-c2ccc(C(F)(F)F)cn2)nc1Cc1cccc(C(F)(F)F)c1 [Compound 106]
Plant response rating, Russian Thistle [1, 8]: 0
Plant response rating, Russian Thistle [1, 9]: 5
Plant response rating, Russian Thistle [1, 10]: 30
Plant response rating, Russian Thistle [1, 11]: 100
Plant response rating, Rice (rice (Oryza sativa); Flood (flooded paddy test), 125 g ai/ha, visual rating after 13 to 15 days): 25
Plant response rating, Rice (rice (Oryza sativa); Flood (flooded paddy test), 250 g ai/ha, visual rating after 13 to 15 days): 30
Plant response rating, Rice (rice (Oryza sativa); Flood, 31 g ai/ha): 0
Plant response rating, Rice (rice (Oryza sativa); Flood, 62 g ai/ha): 0
Plant response rating: Blackgrass [2, 12]: 10
Plant response rating: Blackgrass [2, 13]: 10
Plant response rating: Blackgrass [2, 14]: 20
Plant response rating: Blackgrass [2, 15]: 30
Plant response rating, Blackgrass [2, 16]: 5
Plant response rating, Blackgrass [2, 17]: 0
Plant response rating, Blackgrass [2, 18]: 0
Plant response rating, Blackgrass [2, 19]: 0
Plant response rating, Blackgrass [2, 20]: 0
Plant response rating: Foxtail, Green [3, 12]: 10
Plant response rating: Foxtail, Green [3, 13]: 20
Plant response rating: Foxtail, Green [3, 14]: 30
Plant response rating: Foxtail, Green [3, 15]: 40
Plant response rating, Foxtail, Green [3, 16]: 0
Plant response rating, Foxtail, Green [3, 17]: 0
Plant response rating, Foxtail, Green [3, 18]: 0
Plant response rating, Foxtail, Green [3, 19]: 0
Plant response rating, Foxtail, Green [3, 20]: 100
Plant response rating: Deadnettle [4, 12]: 30
Plant response rating: Deadnettle [4, 13]: 40
Plant response rating: Deadnettle [4, 14]: 60
Plant response rating: Deadnettle [4, 15]: 80
Plant response rating, Deadnettle [4, 16]: 20
Plant response rating, Deadnettle [4, 17]: 0
Plant response rating, Deadnettle [4, 18]: 0
Plant response rating, Deadnettle [4, 19]: 0
Plant response rating, Deadnettle [4, 20]: 0
Plant response rating: Lambsquarters [5, 12]: 30
Plant response rating: Lambsquarters [5, 13]: 30
Plant response rating: Lambsquarters [5, 14]: 50
Plant response rating: Lambsquarters [5, 15]: 90
Plant response rating, Lambsquarters [5, 16]: 20
Plant response rating, Lambsquarters [5, 17]: 40
Plant response rating, Lambsquarters [5, 18]: 40
Plant response rating, Lambsquarters [5, 19]: 40
Plant response rating, Lambsquarters [5, 20]: 40
Plant response rating: Wheat, Spring [6, 12]: 5
Plant response rating: Wheat, Spring [6, 13]: 5
Plant response rating: Wheat, Spring [6, 14]: 10
Plant response rating: Wheat, Spring [6, 15]: 20
Plant response rating, Wheat, Spring [6, 16]: 0
Plant response rating, Wheat, Spring [6, 17]: 0
Plant response rating, Wheat, Spring [6, 18]: 0
Plant response rating, Wheat, Spring [6, 19]: 0
Plant response rating, Wheat, Spring [6, 20]: 0
Plant response rating: Wheat, Winter [7, 12]: 5
Plant response rating: Wheat, Winter [7, 13]: 5
Plant response rating: Wheat, Winter [7, 14]: 5
Plant response rating: Wheat, Winter [7, 15]: 5
Plant response rating, Wheat, Winter [7, 16]: 5
Plant response rating, Wheat, Winter [7, 17]: 0
Plant response rating, Wheat, Winter [7, 18]: 0
Plant response rating, Wheat, Winter [7, 19]: 0
Plant response rating, Wheat, Winter [7, 20]: 0

FC(F)(F)COc1nn(-c2ccc(C(F)(F)F)cc2)nc1Cc1ccnc(C(F)(F)F)c1 [Compound 14, 4-[[5-(2,2,2-trifluoroethoxy)-2-[4-(trifluoromethyl)phenyl]-2H-1,2,3-triazol-4-yl]methyl]-2-(trifluoromethyl)pyridine]
Plant response rating, Russian Thistle [1, 8]: 10
Plant response rating, Russian Thistle [1, 9]: 90
Plant response rating, Russian Thistle [1, 10]: 95
Plant response rating, Russian Thistle [1, 11]: 95
plant injury at 62 g/ha (rice (Oryza sativa); Oryza sativa, Flood (flooded paddy test), 62 g ai/ha, visual rating after 13 to 15 days, read-out: Plant response rating, Rice): 40%
plant injury at 250 g/ha (rice (Oryza sativa); Oryza sativa, Flood (flooded paddy test), 250 g ai/ha, visual rating after 13 to 15 days, read-out: Plant response rating, Rice): 45%
Plant response rating: Blackgrass [2, 12]: 25
Plant response rating: Blackgrass [2, 13]: 35
Plant response rating: Blackgrass [2, 14]: 70
Plant response rating: Blackgrass [2, 15]: 85
Plant response rating, Blackgrass [2, 17]: 0
Plant response rating, Blackgrass [2, 18]: 0
Plant response rating, Blackgrass [2, 19]: 10
Plant response rating, Blackgrass [2, 20]: 60
Plant response rating: Foxtail, Green [3, 12]: 10
Plant response rating: Foxtail, Green [3, 13]: 25
Plant response rating: Foxtail, Green [3, 14]: 30
Plant response rating: Foxtail, Green [3, 15]: 95
Plant response rating, Foxtail, Green [3, 17]: 0
Plant response rating, Foxtail, Green [3, 18]: 10
Plant response rating, Foxtail, Green [3, 19]: 75
Plant response rating, Foxtail, Green [3, 20]: 100
Plant response rating: Deadnettle [4, 12]: 25
Plant response rating: Deadnettle [4, 13]: 40
Plant response rating: Deadnettle [4, 14]: 100
Plant response rating: Deadnettle [4, 15]: 100
Plant response rating, Deadnettle [4, 17]: 60
Plant response rating, Deadnettle [4, 18]: 70
Plant response rating, Deadnettle [4, 19]: 100
Plant response rating, Deadnettle [4, 20]: 100
Plant response rating: Lambsquarters [5, 12]: 80
Plant response rating: Lambsquarters [5, 13]: 80
Plant response rating: Lambsquarters [5, 14]: 100
Plant response rating: Lambsquarters [5, 15]: 100
Plant response rating, Lambsquarters [5, 17]: 0
Plant response rating, Lambsquarters [5, 18]: 40
Plant response rating, Lambsquarters [5, 19]: 60
Plant response rating, Lambsquarters [5, 20]: 75
Plant response rating: Wheat, Spring [6, 12]: 15
Plant response rating: Wheat, Spring [6, 13]: 20
Plant response rating: Wheat, Spring [6, 14]: 35
Plant response rating: Wheat, Spring [6, 15]: 40
Plant response rating, Wheat, Spring [6, 17]: 0
Plant response rating, Wheat, Spring [6, 18]: 0
Plant response rating, Wheat, Spring [6, 19]: 5
Plant response rating, Wheat, Spring [6, 20]: 15
Plant response rating: Wheat, Winter [7, 12]: 5
Plant response rating: Wheat, Winter [7, 13]: 5
Plant response rating: Wheat, Winter [7, 14]: 15
Plant response rating: Wheat, Winter [7, 15]: 25
Plant response rating, Wheat, Winter [7, 17]: 0
Plant response rating, Wheat, Winter [7, 18]: 0
Plant response rating, Wheat, Winter [7, 19]: 10
Plant response rating, Wheat, Winter [7, 20]: 20
